From US8758816B2, “Compositions comprising azelastine and methods of use thereof” (priority 2004, dated 2014)
Where a name gives a salt, the structure may show the parent alone.

Test system: patients with seasonal allergic rhinitis (SAR)
Experiment: MP 428 study: individual symptom severity scores (runny nose, itchy nose, sneezing, congestion; 0-3 scale)
Format: in vivo, human
Settings: Intent-to-Treat Population
Procedure: A two-week, randomized, double-blind study, which evaluated the effects of the co-administration of ASTELIN® (azelastine hydrochloride (HCl)) and FLONASE® (fluticasone propionate) compared to either product alone in patients with seasonal allergic rhinitis (SAR) was conducted during the 2006 Texas mountain cedar season. After a 5-day placebo lead-in period, 151 patients with moderate-to-severe allergic rhinitis symptoms were randomized to either: (1) (49 total patients) ASTELIN® (azelastine hydrochloride (HCl)) plus placebo saline nasal spray 2 sprays per nostril, 15 minutes apart, twice daily (AM & PM); (2) (50 total patients) FLONASE® (fluticasone propionate) plus placebo saline nasal spray, 2 sprays per nostril, 15 minutes apart, once daily (AM) and two sessions of placebo saline nasal spray, 2 sprays per nostril, 15 minutes apart (PM); or (3) (52 total patients) the co-administration of ASTELIN® (azelastine hydrochloride (HCl)) 2 sprays per nostril plus FLONASE® (fluticasone propionate) 2 sprays per nostril (AM), 15 minutes apart, and ASTELIN® (azelastine hydrochloride (HCl)) 2 sprays per nostril plus placebo saline nasal spray, 15 minutes apart, (PM) for a 2-week double-blind treatment period.
The primary efficacy variable was the change from baseline in the Total Nasal Symptom Score (TNSS), which comprised sneezing, itchy nose, runny nose, and nasal congestion (individual symptoms scores were assigned a value between 0 and 3, where 0=no symptoms and 3=severe symptoms). This study was not statistically designed to assess the differences between ASTELIN® and FLONASE®.
The results of the clinical trial are summarized and presented in Appendix A hereinbelow and in FIGS. 1-6. […] FIGS. 2-5 show the mean improvement in severity score (0-3 scale) from baseline for the symptoms of runny nose, itchy nose, sneezing and congestion, respectively.

## CN1CCCC(n2nc(Cc3ccc(Cl)cc3)c3ccccc3c2=O)CC1 (racemic) [Azelastine, (±)-1-(2H)-phthalazinone, 4-[(4-chlorophenyl)methyl]-2-(hexahydro-1-methyl-1H-azepin-4-yl)-, mono-hydrochloride]
Day 9
  Change from Baseline in AM and PM Combined Nasal Symptom Score: Congestion, LS Mean: −1.20
  Change from Baseline in AM and PM Combined Nasal Symptom Score: Congestion, Mean: −1.23
  Change from Baseline in AM and PM Combined Nasal Symptom Score: Congestion, Median: −1.00
  Change from Baseline in AM and PM Combined Nasal Symptom Score: Itchy Nose, LS Mean: −1.29
  Change from Baseline in AM and PM Combined Nasal Symptom Score: Itchy Nose, Mean: −1.27
  Change from Baseline in AM and PM Combined Nasal Symptom Score: Itchy Nose, Median: −0.93
  Change from Baseline in AM and PM Combined Nasal Symptom Score: Runny Nose, LS Mean: −1.14
  Change from Baseline in AM and PM Combined Nasal Symptom Score: Runny Nose, Mean: −1.15
  Change from Baseline in AM and PM Combined Nasal Symptom Score: Runny Nose, Median: −0.90
  Change from Baseline in AM and PM Combined Nasal Symptom Score: Sneezing, LS Mean: −1.72
  Change from Baseline in AM and PM Combined Nasal Symptom Score: Sneezing, Mean: −1.73
  Change from Baseline in AM and PM Combined Nasal Symptom Score: Sneezing, Median: −1.67
  Percent Change from Baseline in AM and PM Combined Nasal Symptom Score: Congestion, LS Mean: −21.68%
  Percent Change from Baseline in AM and PM Combined Nasal Symptom Score: Congestion, Mean: −22.05%
  Percent Change from Baseline in AM and PM Combined Nasal Symptom Score: Congestion, Median: −18.64%
  Percent Change from Baseline in AM and PM Combined Nasal Symptom Score: Itchy Nose, LS Mean: −27.69%
  Percent Change from Baseline in AM and PM Combined Nasal Symptom Score: Itchy Nose, Mean: −26.97%
  Percent Change from Baseline in AM and PM Combined Nasal Symptom Score: Itchy Nose, Median: −21.57%
  Percent Change from Baseline in AM and PM Combined Nasal Symptom Score: Runny Nose, LS Mean: −23.07%
  Percent Change from Baseline in AM and PM Combined Nasal Symptom Score: Runny Nose, Mean: −23.25%
  Percent Change from Baseline in AM and PM Combined Nasal Symptom Score: Runny Nose, Median: −21.74%
  Percent Change from Baseline in AM and PM Combined Nasal Symptom Score: Sneezing, LS Mean: −36.31%
  Percent Change from Baseline in AM and PM Combined Nasal Symptom Score: Sneezing, Mean: −36.04%
  Percent Change from Baseline in AM and PM Combined Nasal Symptom Score: Sneezing, Median: −35.48%
Day 10
  Change from Baseline in AM and PM Combined Nasal Symptom Score: Congestion, LS Mean: −1.12
  Change from Baseline in AM and PM Combined Nasal Symptom Score: Congestion, Mean: −1.17
  Change from Baseline in AM and PM Combined Nasal Symptom Score: Congestion, Median: −1.00
  Change from Baseline in AM and PM Combined Nasal Symptom Score: Itchy Nose, LS Mean: −1.35
  Change from Baseline in AM and PM Combined Nasal Symptom Score: Itchy Nose, Mean: −1.35
  Change from Baseline in AM and PM Combined Nasal Symptom Score: Itchy Nose, Median: −1.10
  Change from Baseline in AM and PM Combined Nasal Symptom Score: Runny Nose, LS Mean: −1.11
  Change from Baseline in AM and PM Combined Nasal Symptom Score: Runny Nose, Mean: −1.13
  Change from Baseline in AM and PM Combined Nasal Symptom Score: Runny Nose, Median: −0.83
  Change from Baseline in AM and PM Combined Nasal Symptom Score: Sneezing, LS Mean: −1.70
  Change from Baseline in AM and PM Combined Nasal Symptom Score: Sneezing, Mean: −1.71
  Change from Baseline in AM and PM Combined Nasal Symptom Score: Sneezing, Median: −1.75
  Percent Change from Baseline in AM and PM Combined Nasal Symptom Score: Congestion, LS Mean: −20.32%
  Percent Change from Baseline in AM and PM Combined Nasal Symptom Score: Congestion, Mean: −20.94%
  Percent Change from Baseline in AM and PM Combined Nasal Symptom Score: Congestion, Median: −16.67%
  Percent Change from Baseline in AM and PM Combined Nasal Symptom Score: Itchy Nose, LS Mean: −29.83%
  Percent Change from Baseline in AM and PM Combined Nasal Symptom Score: Itchy Nose, Mean: −29.56%
  Percent Change from Baseline in AM and PM Combined Nasal Symptom Score: Itchy Nose, Median: −21.57%
  Percent Change from Baseline in AM and PM Combined Nasal Symptom Score: Runny Nose, LS Mean: −22.00%
  Percent Change from Baseline in AM and PM Combined Nasal Symptom Score: Runny Nose, Mean: −22.22%
  Percent Change from Baseline in AM and PM Combined Nasal Symptom Score: Runny Nose, Median: −16.67%
  Percent Change from Baseline in AM and PM Combined Nasal Symptom Score: Sneezing, LS Mean: −41.13%
  Percent Change from Baseline in AM and PM Combined Nasal Symptom Score: Sneezing, Mean: −40.82%
  Percent Change from Baseline in AM and PM Combined Nasal Symptom Score: Sneezing, Median: −38.78%
Day 11
  Change from Baseline in AM and PM Combined Nasal Symptom Score: Congestion, LS Mean: −1.18
  Change from Baseline in AM and PM Combined Nasal Symptom Score: Congestion, Mean: −1.23
  Change from Baseline in AM and PM Combined Nasal Symptom Score: Congestion, Median: −0.92
  Change from Baseline in AM and PM Combined Nasal Symptom Score: Itchy Nose, LS Mean: −1.39
  Change from Baseline in AM and PM Combined Nasal Symptom Score: Itchy Nose, Mean: −1.37
  Change from Baseline in AM and PM Combined Nasal Symptom Score: Itchy Nose, Median: −1.10
  Change from Baseline in AM and PM Combined Nasal Symptom Score: Runny Nose, LS Mean: −1.35
  Change from Baseline in AM and PM Combined Nasal Symptom Score: Runny Nose, Mean: −1.38
  Change from Baseline in AM and PM Combined Nasal Symptom Score: Runny Nose, Median: −1.10
  Change from Baseline in AM and PM Combined Nasal Symptom Score: Sneezing, LS Mean: −1.79
  Change from Baseline in AM and PM Combined Nasal Symptom Score: Sneezing, Mean: −1.79
  Change from Baseline in AM and PM Combined Nasal Symptom Score: Sneezing, Median: −1.55
  Percent Change from Baseline in AM and PM Combined Nasal Symptom Score: Congestion, LS Mean: −20.72%
  Percent Change from Baseline in AM and PM Combined Nasal Symptom Score: Congestion, Mean: −21.53%
  Percent Change from Baseline in AM and PM Combined Nasal Symptom Score: Congestion, Median: −16.67%
  Percent Change from Baseline in AM and PM Combined Nasal Symptom Score: Itchy Nose, LS Mean: −30.38%
  Percent Change from Baseline in AM and PM Combined Nasal Symptom Score: Itchy Nose, Mean: −29.59%
  Percent Change from Baseline in AM and PM Combined Nasal Symptom Score: Itchy Nose, Median: −22.33%
  Percent Change from Baseline in AM and PM Combined Nasal Symptom Score: Runny Nose, LS Mean: −25.36%
  Percent Change from Baseline in AM and PM Combined Nasal Symptom Score: Runny Nose, Mean: −25.83%
  Percent Change from Baseline in AM and PM Combined Nasal Symptom Score: Runny Nose, Median: −21.57%
  Percent Change from Baseline in AM and PM Combined Nasal Symptom Score: Sneezing, LS Mean: −43.40%
  Percent Change from Baseline in AM and PM Combined Nasal Symptom Score: Sneezing, Mean: −42.70%
  Percent Change from Baseline in AM and PM Combined Nasal Symptom Score: Sneezing, Median: −38.78%
Day 12
  Change from Baseline in AM and PM Combined Nasal Symptom Score: Congestion, LS Mean: −1.21
  Change from Baseline in AM and PM Combined Nasal Symptom Score: Congestion, Mean: −1.27
  Change from Baseline in AM and PM Combined Nasal Symptom Score: Congestion, Median: −1.00
  Change from Baseline in AM and PM Combined Nasal Symptom Score: Itchy Nose, LS Mean: −1.33
  Change from Baseline in AM and PM Combined Nasal Symptom Score: Itchy Nose, Mean: −1.33
  Change from Baseline in AM and PM Combined Nasal Symptom Score: Itchy Nose, Median: −1.00
  Change from Baseline in AM and PM Combined Nasal Symptom Score: Runny Nose, LS Mean: −1.22
  Change from Baseline in AM and PM Combined Nasal Symptom Score: Runny Nose, Mean: −1.25
  Change from Baseline in AM and PM Combined Nasal Symptom Score: Runny Nose, Median: −0.43
  Change from Baseline in AM and PM Combined Nasal Symptom Score: Sneezing, LS Mean: −1.63
  Change from Baseline in AM and PM Combined Nasal Symptom Score: Sneezing, Mean: −1.63
  Change from Baseline in AM and PM Combined Nasal Symptom Score: Sneezing, Median: −1.73
